Reference: patent US7396837B2, “Antitumoral analogs of lamellarins” (Pharma Mar, S.A.U., priority 2002, dated 2008)

Key:
Format in all cases: cell-based
K-562 = assay: SRB colorimetric cell growth inhibition assay, K-562; settings: Homo sapiens, K562, K-562
Procedure, shortened: (§1)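 In this cytotoxicity screen, compound stays in contact with the cultured human cancer cells without washout; sulforhodamine B binding gives the measure of cell number, and endpoints separate growth inhibition from cytostasis (TGI) and killing (LC).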

A-549 = assay: SRB colorimetric cell growth inhibition assay, A-549; settings: Homo sapiens, A549, A-549
Procedure, shortened: as §1

SK-MEL-28 = assay: SRB colorimetric cell growth inhibition assay, SK-MEL-28; settings: Homo sapiens, SK-MEL-28, MEL-28
Procedure, shortened: as §1

HT-29 = assay: SRB colorimetric cell growth inhibition assay, HT-29; settings: Homo sapiens, HT-29, HT-29
Procedure, shortened: as §1

LoVo = assay: SRB colorimetric cell growth inhibition assay, LoVo; settings: Homo sapiens, LoVo
Procedure, shortened: as §1

LoVo-Dox = assay: SRB colorimetric cell growth inhibition assay, LoVo-Dox (MDR); settings: Homo sapiens, LOVO-DOX
Procedure, shortened: as §1

DU-145 = assay: SRB colorimetric cell growth inhibition assay, DU-145; settings: Homo sapiens, DU-145, DU-145
Procedure, shortened: as §1

LNCaP = assay: SRB colorimetric cell growth inhibition assay, LNCaP; settings: Homo sapiens, LNCaP, LN-caP
Procedure, shortened: as §1

SK-BR-3 = assay: SRB colorimetric cell growth inhibition assay, SK-BR-3; settings: Homo sapiens, SK-BR-3, SK-BR-3
Procedure, shortened: as §1

IGROV = assay: SRB colorimetric cell growth inhibition assay, IGROV; settings: Homo sapiens, IGROV
Procedure, shortened: as §1

IGROV-ET = assay: SRB colorimetric cell growth inhibition assay, IGROV-ET (ET-743 resistant); settings: Homo sapiens, IGROV-ET
Procedure, shortened: as §1

PANC-1 = assay: SRB colorimetric cell growth inhibition assay, PANC-1; settings: Homo sapiens, PANC-1, PANC-1
Procedure, shortened: as §1

SKOV-3 = assay: SRB colorimetric cell growth inhibition assay, SKOV-3; settings: Homo sapiens
Source text: Inhibition of Cell Growth by Colorimetric Assay.
A colorimetric type of assay, using sulforhodamine B (SRB) reaction has been adapted for a quantitative measurement of cell growth and viability (following the technique described by P. A. Skehan, et al., J. Natl. Cancer Inst. 1990, 82, 1107-1112).
This form of assay employs 96 well cell culture microplates of 9 mm diameter (T. Mosmann et al., J. of Immunological Methods 1983, 65, 55-63; G. T. Faircloth et al., J. of Tissue and Culture Methods 1988, 11, 201-205).
Most of the cell lines are obtained from American Type Culture Collection (ATCC) derived from different human cancer types.
The values for mean +/− SD of data from triplicate wells are calculated. Some parameters for cellular responses can be calculated: GI=growth inhibition, TGI=total growth inhibition (cytostatic effect) and LC=cell killing (cytotoxic effect).

`COc1cc(-c2c3c4cc(OC)c(OC(=O)[C@H](C)NC(=O)OC(C)(C)C)cc4oc(=O)c3n3ccc4cc(OC(=O)[C@H](C)NC(=O)OC(C)(C)C)c(OC)cc4c23)ccc1OC(=O)[C@H](C)NC(=O)OC(C)(C)C` [Compound 41] was tested, and the GI50 (K-562; GI=growth inhibition, read-out: GI50 K-562) was 1.77 µM, the CC50 (K-562; LC=cell killing (cytotoxic effect), read-out: LC50 K-562) was 8.02 µM and the IC (TGI) (K-562; TGI=total growth inhibition (cytostatic effect), read-out: TGI K-562) was 3.76 µM. For the same molecule, the GI50 (A-549; GI=growth inhibition, read-out: GI50 A-549) was 2.42 µM, the CC50 (A-549; LC=cell killing (cytotoxic effect), read-out: LC50 A-549) was 9.87 µM and the IC (TGI) (A-549; TGI=total growth inhibition (cytostatic effect), read-out: TGI A-549) was 8.01 µM. The GI50 (SK-MEL-28; GI=growth inhibition, read-out: GI50 MEL-28) was 1.86 µM, the CC50 (SK-MEL-28; LC=cell killing (cytotoxic effect), read-out: LC50 MEL-28) was 9.43 µM and the IC (TGI) (SK-MEL-28; TGI=total growth inhibition (cytostatic effect), read-out: TGI MEL-28) was 4.19 µM. It also gave a GI50 (HT-29; GI=growth inhibition, read-out: GI50 HT-29) of 3.24 µM, a CC50 (HT-29; LC=cell killing (cytotoxic effect), read-out: LC50 HT-29) of 9.87 µM and an IC (TGI) (HT-29; TGI=total growth inhibition (cytostatic effect), read-out: TGI HT-29) of 8.89 µM. It also gave a GI50 (LoVo; GI=growth inhibition, read-out: GI50 LOVO) of 3.31 µM, a CC50 (LoVo; LC=cell killing (cytotoxic effect), read-out: LC50 LOVO) of 9.87 µM and an IC (TGI) (LoVo; TGI=total growth inhibition (cytostatic effect), read-out: TGI LOVO) of 9.87 µM. The GI50 (LoVo-Dox; GI=growth inhibition, read-out: GI50 LOVO-DOX) was 4.2 µM, the CC50 (LoVo-Dox; LC=cell killing (cytotoxic effect), read-out: LC50 LOVO-DOX) was 9.87 µM and the IC (TGI) (LoVo-Dox; TGI=total growth inhibition (cytostatic effect), read-out: TGI LOVO-DOX) was 9.87 µM. For the same molecule, the GI50 (DU-145; GI=growth inhibition, read-out: GI50 DU-145) was 0.679 µM, the CC50 (DU-145; LC=cell killing (cytotoxic effect), read-out: LC50 DU-145) was 9.87 µM and the IC (TGI) (DU-145; TGI=total growth inhibition (cytostatic effect), read-out: TGI DU-145) was 9.87 µM. It also gave a GI50 (LNCaP; GI=growth inhibition, read-out: GI50 LN-caP) of 2.1 µM, a CC50 (LNCaP; LC=cell killing (cytotoxic effect), read-out: LC50 LN-caP) of 9.87 µM and an IC (TGI) (LNCaP; TGI=total growth inhibition (cytostatic effect), read-out: TGI LN-caP) of 6.47 µM. It also gave a GI50 (SK-BR-3; GI=growth inhibition, read-out: GI50 SK-BR-3) of 1.62 µM, a CC50 (SK-BR-3; LC=cell killing (cytotoxic effect), read-out: LC50 SK-BR-3) of 9.87 µM and an IC (TGI) (SK-BR-3; TGI=total growth inhibition (cytostatic effect), read-out: TGI SK-BR-3) of 4.85 µM. For the same molecule, the GI50 (IGROV; GI=growth inhibition, read-out: GI50 IGROV) was 0.0917 µM, the CC50 (IGROV; LC=cell killing (cytotoxic effect), read-out: LC50 IGROV) was 4.7 µM and the IC (TGI) (IGROV; TGI=total growth inhibition (cytostatic effect), read-out: TGI IGROV) was 0.492 µM. The GI50 (IGROV-ET; GI=growth inhibition, read-out: GI50 IGROV-ET) was 0.188 µM, the CC50 (IGROV-ET; LC=cell killing (cytotoxic effect), read-out: LC50 IGROV-ET) was 9.87 µM and the IC (TGI) (IGROV-ET; TGI=total growth inhibition (cytostatic effect), read-out: TGI IGROV-ET) was 0.852 µM. It also gave a GI50 (PANC-1; GI=growth inhibition, read-out: GI50 PANC-1) of 2.48 µM, a CC50 (PANC-1; LC=cell killing (cytotoxic effect), read-out: LC50 PANC-1) of 9.87 µM and an IC (TGI) (PANC-1; TGI=total growth inhibition (cytostatic effect), read-out: TGI PANC-1) of 9.87 µM. It also gave a GI50 (SKOV-3; SK-OV-3, SKOV-3, GI=growth inhibition, read-out: GI50 SKOV-3) of 5.95 µM, a CC50 (SKOV-3; SK-OV-3, SKOV-3, LC=cell killing (cytotoxic effect), read-out: LC50 SKOV-3) of 9.87 µM and an IC (TGI) (SKOV-3; SK-OV-3, SKOV-3, TGI=total growth inhibition (cytostatic effect), read-out: TGI SKOV-3) of 9.87 µM.
